In patent US7514582B2, “2′-substituted 1,1′-biphenyl-2-carboxamides, processes for their preparation, their use as medicaments, and pharmaceutical preparations comprising them” (Sanofi-Aventis Deutschland GmbH, priority 1999, dated 2009):

Legend:
[1] = molecular target: T1, Kv1.5 channels from humans (Homo sapiens, UniProt P22460); assay: Kv1.5 currents in Xenopus oocytes, two-microelectrode voltage clamp; type: cell-based
T1 construct: expressed in transfected cells; host or cells: Xenopus laevis oocytes injected with in vitro synthesized RNA
Experimental: Kv1.5 channels from humans were expressed in Xenopus oocytes. For this, oocytes from Xenopus laevis were first isolated and defolliculated. RNA encoding Kv1.5 synthesized in vitro was then injected into these oocytes. After Kv1.5 protein expression for 1-7days, Kv1.5 currents were measured on the oocytes using the two-microelectrode voltage clamp technique. The Kv1.5 channels were in this case as a rule activated using voltage jumps to 0 mV and 40 mV lasting 500 ms. The bath was rinsed with a solution of the following composition: NaCl 96 mM, KCl 2 mM, CaCl2 1.8 mM, MgCl2 1 mM, HEPES 5 mM (titrated with NaOH to pH 7.4). These experiments were carried out at room temperature. The following were employed for data acquisition and analysis: Genedamp amplifier (Axon Instruments, Foster City, USA) and MacLab D/A converter and software (AD Instruments, Castle Hill, Australia). The substances according to the invention were tested by adding them in different concentrations to the bath solution. The effects of the substances were calculated as the percentage inhibition of the Kv1.5 control current which was obtained when no substance was added to the solution. The data were then extrapolated using the Hill equation in order to determine the inhibitory concentration IC50 for the respective substances.

T1 sequence (P22460 whole entry): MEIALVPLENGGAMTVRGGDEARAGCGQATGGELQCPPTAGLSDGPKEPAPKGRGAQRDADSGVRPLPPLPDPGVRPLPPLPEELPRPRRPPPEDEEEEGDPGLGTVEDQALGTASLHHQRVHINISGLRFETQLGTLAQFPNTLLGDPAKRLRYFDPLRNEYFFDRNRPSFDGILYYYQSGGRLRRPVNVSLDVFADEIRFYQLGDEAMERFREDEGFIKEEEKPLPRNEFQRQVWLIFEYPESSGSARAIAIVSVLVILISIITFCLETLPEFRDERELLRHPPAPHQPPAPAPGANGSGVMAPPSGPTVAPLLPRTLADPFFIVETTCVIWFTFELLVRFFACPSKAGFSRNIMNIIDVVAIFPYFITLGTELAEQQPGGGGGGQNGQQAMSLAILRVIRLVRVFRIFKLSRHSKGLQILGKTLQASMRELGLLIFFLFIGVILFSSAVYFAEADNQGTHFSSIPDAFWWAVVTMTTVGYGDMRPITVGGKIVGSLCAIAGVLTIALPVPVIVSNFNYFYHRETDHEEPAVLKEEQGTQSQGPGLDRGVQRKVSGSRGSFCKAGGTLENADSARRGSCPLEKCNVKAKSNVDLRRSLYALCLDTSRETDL

SMILES | IC50 [1] [µM] | melting point [°C]
O=C(Cc1ccc(O)cc1)NCc1ccccc1-c1ccccc1C(=O)NCc1ccc(F)cc1F [18 w] | 5.4 | 
COc1ccc(CC(=O)NCc2cccc(C)c2-c2c(C)cccc2C(=O)NCCC(C)C)cc1 [18 x] | 4.6 | 
COc1ccc(CC(=O)NCc2ccccc2-c2ccccc2C(=O)NCCCOC(C)C)cc1 [18 y] | 1.9 | 
COc1ccc(CC(=O)NCc2ccccc2-c2ccccc2C(=O)NC2CCCC2)cc1 [18 z] | 1.2 | 
CC(C)CCNC(=O)c1ccccc1-c1ccccc1CNC(=O)OCc1ccccc1 [Example 2 b, 2′-(Benzyloxycarbonylaminomethyl)biphenyl-2-carboxylic acid (3-methylbutyl)amide] |  | 112
O=C(NCc1ccccc1)c1ccccc1-c1ccccc1CNS(=O)(=O)c1cccc(C(F)(F)F)c1 [Example 3 g, 2′-(3-Trifluoromethylphenylsulfonylaminomethyl)biphenyl-2-carboxylic acid benzylamide] |  | 126
O=C(NCc1ccccc1)c1ccccc1-c1ccccc1CNS(=O)(=O)c1cccc([N+](=O)[O-])c1 [Example 3 i, 2′-(3-Nitrophenylsulfonylaminomethyl)biphenyl-2-carboxylic acid benzylamide] |  | 175
CC(C)CCNC(=O)c1ccccc1-c1ccccc1CNS(=O)(=O)c1ccccc1 [Example 3 l, 2′-(Phenylsulfonylaminomethyl)biphenyl-2-carboxylic acid (3-methyl butyl)amide] |  | 127
CC(C)CCNC(=O)c1ccccc1-c1ccccc1CNS(=O)(=O)c1ccc(F)cc1 [Example 3 m, 2′-(4-Fluorophenylsulfonylaminomethyl)biphenyl-2-carboxylic acid (3-methylbutyl)amide] |  | 149
CC(C)CCNC(=O)c1ccccc1-c1ccccc1CNS(=O)(=O)c1cccc(F)c1 [Example 3 n, 2′-(3-Fluorophenylsulfonylaminomethyl)biphenyl-2-carboxylic acid (3-methylbutyl)amide] |  | 141
CC(C)CCNC(=O)c1ccccc1-c1ccccc1CNC(=O)Nc1ccccc1 [Example 5 a, 2′-[(3-Phenylureido)methyl]biphenyl-2-carboxylic acid (3-methylbutyl)amide] |  | 194

Continued, values first:

IC50 [1] [µM] | melting point [°C] | SMILES
 | 145 | O=C(NCCc1ccccc1)c1ccccc1-c1ccccc1CNS(=O)(=O)c1cccc(C(F)(F)F)c1 [Example 3 a, 2′-(3-Trifluoromethylphenylsulfonylaminomethyl)biphenyl-2-carboxylic acid phenethylamide]
 | 145 | CC(=O)c1ccc(S(=O)(=O)NCc2ccccc2-c2ccccc2C(=O)NCCc2ccccc2)cc1 [Example 3 b, 2′-(4-Acetylphenylsulfonylaminomethyl)biphenyl-2-carboxylic acid phenethylamide]
 | 145 | O=C(NCCc1ccccc1)c1ccccc1-c1ccccc1CNS(=O)(=O)c1cccc([N+](=O)[O-])c1 [Example 3 c, 2′-(3-Nitrophenylsulfonylaminomethyl)biphenyl-2-carboxylic acid phenethylamide]
 | 154 | O=C(NCCc1ccccc1)c1ccccc1-c1ccccc1CNS(=O)(=O)c1ccccc1 [Example 3 d, 2′-(Phenylsulfonylaminomethyl)biphenyl-2-carboxylic acid phenethylamide]
 | 153 | O=C(NCCc1ccccc1)c1ccccc1-c1ccccc1CNS(=O)(=O)c1cccc(F)c1 [Example 3 e, 2′-(3-Fluorophenylsulfonylaminomethyl)biphenyl-2-carboxylic acid phenethylamide]
 | 163 | CCc1ccc(S(=O)(=O)NCc2ccccc2-c2ccccc2C(=O)NCCc2ccccc2)cc1 [Example 3 f, 2′-(4-Ethylphenylsulfonylaminomethyl)biphenyl-2-carboxylic acid phenethylamide]
 | 182 | CC(=O)c1cccc(S(=O)(=O)NCc2ccccc2-c2ccccc2C(=O)NCc2ccccc2)c1 [Example 3 h, 2′-(3-Acetylphenylsulfonylaminomethyl)biphenyl-2-carboxylic acid benzylamide]
 | 162 | O=C(NCc1ccccc1)c1ccccc1-c1ccccc1CNS(=O)(=O)c1ccccc1 [Example 3 j, 2′-(3-Phenylsulfonylaminomethyl)biphenyl-2-carboxylic acid benzylamide]
 | 147 | O=C(NCc1ccccc1)c1ccccc1-c1ccccc1CNS(=O)(=O)c1cccc(F)c1 [Example 3 k, 2′-(3-Fluorophenylsulfonylaminomethyl)biphenyl-2-carboxylic acid benzylamide]
 | 131 | O=C(NCCc1ccccn1)c1ccccc1-c1ccccc1CNS(=O)(=O)c1ccccc1 [Example 3 p]
 | 130 | O=C(NCCc1ccccn1)c1ccccc1-c1ccccc1CNS(=O)(=O)c1ccc(F)cc1 [Example 3 q, 2′-(4-Fluorophenylsulfonylaminomethyl)biphenyl-2-carboxylic acid 2-(2-pyridyl)ethylamide]
 | 123 | O=C(NCCc1ccccn1)c1ccccc1-c1ccccc1CNS(=O)(=O)c1cccc(F)c1 [Example 3 r, 2′-(3-Fluorophenylsulfonylaminomethyl)biphenyl-2-carboxylic acid 2-(2-pyridyl)ethylamide]
 | 147 | CC(C)CCNC(=O)c1ccccc1-c1ccccc1CNC(=O)c1ccccc1 [Example 4 a, 2′-(Benzoylaminomethyl)biphenyl-2-carboxylic acid (3-methylbutyl)amide]
 | 135 | O=C(NCc1ccccc1-c1ccccc1C(=O)NCCc1ccccn1)c1ccccc1 [Example 4 b, 2′-(Benzoylaminomethyl)biphenyl-2-carboxylic acid 2-(2-pyridyl)ethylamide]
 | 99 | O=C(NCc1ccccc1-c1ccccc1C(=O)NCCc1ccccn1)Nc1ccccc1 [Example 5 b, 2′-[(3-Phenylureido)methyl]biphenyl-2-carboxylic acid 2-(2-pyridyl)ethylamide]
